The subject of one series is SMN2 mRNA. Nature of the series: Gene panel canonical junction qPCR assay, SMN2 CJ mRNA decrease. In kind it is cell-based, human. As to conditions: Homo sapiens, canonical junction qPCR, read-out: SMN2 IC50 (decrease in CJ mRNA levels). In a few lines:
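IC50 values describe loss of canonical-junction transcript, fitted by 4-parameter logistic to percent response derived from fixed ΔCt windows. Read-out: RT-qPCR on lysates of compound-treated K562 or A673 cells, probes overlapping the exon junction, ΔΔCt versus housekeeping gene and DMSO control.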

A further series concerns HiBiT-tagged MYB protein. Nature of the series: HiBiT protein abundance assay, MYB (K562 HiBiT knock-in cells). As to conditions: 24 hours. In kind it is cell-based, human. Put shortly:
(§1)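 K562 cells with endogenous HiBiT knock-in tag, 10-point 3-fold dilutions (top 10 μM final, ≤0.25% DMSO), 24 h at 37 °C. Lytic Nano-Glo HiBiT luminescence, normalized to DMSO and unmodified K562 baselines; IC50 is concentration giving 50% protein abundance from four-parameter fit.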

The next series concerns HiBiT-tagged HTT protein. In words: HiBiT protein abundance assay, HTT (K562 HiBiT knock-in cells). The class given is cell-based, human. As to conditions: 24 hours. In a few lines:
as §1
For orientation: With HiBiT, luminescence reflects the tagged protein that the partner subunit can reach.

In another series the test system is Target C. In words: HiBiT protein abundance assay, Target C (K562 HiBiT knock-in cells). The class given is cell-based, human. As to conditions: 24 hours. In a few lines:
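K562 knock-in cells (10000/well, IMDM+1% FBS) treated 24 h at 37 °C with 10-point 3-fold dilutions, top final 10 μM, DMSO ≤0.25%. HiBiT lytic luminescence read; response normalized to unmodified K562 and DMSO-treated controls. IC50 interpolated at 50% abundance by four-parameter logistic fit.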

The next series relates to K562 cells. Nature of the series: Cell Titer Glo 2.0 cell viability assay in K562 cells. To be noted: 72 hours.

The structures appear in SMILES notation.

Broadly, the IC50 is the concentration at which inhibition is half-maximal.

Take `CCNC1CCN(c2ccc(C(=O)Nc3cc(F)c4nc(C)sc4c3)c3nnccc23)CC1` [Compound 221, 5-[4-(ethylamino)piperidin-1-yl]-N-(4-fluoro-2-methyl-1,3-benzothiazol-6-yl)cinnoline-8-carboxamide]: the IC50 with SMN2 mRNA is less than 0.1 µM; in the series with HiBiT-tagged MYB protein, 0.1 to 1 µM; with HiBiT-tagged HTT protein, 1 to 10 µM; in the series on Target C it was 1 to 10 µM. For the same compound, the Viability entry with K562 cells is reported as “B (B represents 100-1000 nM)”.

For the compound `COc1cnc2c(C(=O)Nc3cc(F)c4nc(C)cn4c3)ccc(N3C[C@@H](C)N[C@@H](C)C3)c2n1` [Compound 223], the IC50 in the series on SMN2 mRNA is less than 0.1 µM; with HiBiT-tagged MYB protein it was less than 0.1 µM; in the series on HiBiT-tagged HTT protein, 0.1 to 1 µM; in the series on Target C, 0.1 to 1 µM. For the same compound, in the series with K562 cells, the Viability result was “B (B represents 100-1000 nM)”.

In the case of `COc1cnc2c(C(=O)Nc3cc(F)c4nc(C)cn4c3)ccc(N3CCNCC3)c2n1` [Compound 225, N-{8-fluoro-2-methylimidazo[1,2-a]pyridin-6-yl}-2-methoxy-8-(piperazin-1-yl)quinoxaline-5-carboxamide], the IC50 in the series with SMN2 mRNA is less than 0.1 µM; with HiBiT-tagged MYB protein it was less than 0.1 µM; in the series with HiBiT-tagged HTT protein it was more than 10 µM; in the series with Target C, more than 10 µM. Besides, the Viability entry in the series on K562 cells is “C (C represents 1000-9999 nM)”.

Turning to `Cc1cn2cc(NC(=O)c3ccc(N4CCN(CCF)C5(CC5)C4)c4nccnc34)cc(F)c2n1` [Compound 370], the 50% inhibitory concentration (IC50) with SMN2 mRNA was 0.1 to 1 µM; in the series on HiBiT-tagged MYB protein it was 1 to 10 µM; in the series on HiBiT-tagged HTT protein, more than 10 µM; in the series on Target C, more than 10 µM. Also, the Viability result in the series on K562 cells is “D (D represents greater than 10 μM in K562 cells)”.

Turning to `Cc1cn2cc(NC(=O)c3ccc(C4CCNCC4)c4nccnc34)cc(F)c2n1` [Compound 371], the IC50 was less than 0.1 µM in the series on SMN2 mRNA, 0.1 to 1 µM in the series on HiBiT-tagged MYB protein, 0.1 to 1 µM in the series on HiBiT-tagged HTT protein and 0.1 to 1 µM in the series with Target C. Besides, the Viability result in the series on K562 cells is listed as “A (A represents <100 nM)”.

As to `Cc1cn2cc(NC(=O)c3ccc(N4CCNC5(COC5)C4)c4nccnc34)cc(F)c2n1` [Compound 372], the IC50 was 0.1 to 1 µM in the series with SMN2 mRNA, 1 to 10 µM in the series on HiBiT-tagged MYB protein, more than 10 µM with HiBiT-tagged HTT protein and more than 10 µM in the series with Target C. Besides, in the series on K562 cells, the Viability entry is “C (C represents 1000-9999 nM)”.

Regarding `Cc1cn2cc(NC(=O)c3ccc(N4CCNC5(CCOC5)C4)c4nccnc34)cc(F)c2n1` (stereo not drawn) [Compound 373], the IC50 is less than 0.1 µM with SMN2 mRNA, 0.1 to 1 µM in the series with HiBiT-tagged MYB protein, 1 to 10 µM with HiBiT-tagged HTT protein and 1 to 10 µM with Target C. Besides, the Viability result with K562 cells is “B (B represents 100-1000 nM)”.

Consider `Cc1cn2cc(NC(=O)c3ccc(N4CCNC5(CCOCC5)C4)c4nccnc34)cc(F)c2n1` [Compound 374], for which the IC50 is less than 0.1 µM in the series with SMN2 mRNA, 0.1 to 1 µM with HiBiT-tagged MYB protein, 1 to 10 µM in the series on HiBiT-tagged HTT protein and 1 to 10 µM in the series on Target C. Besides, the Viability result in the series with K562 cells was “B (B represents 100-1000 nM)”.

In the case of `Cc1cn2cc(NC(=O)c3ccc(C4CCNC5(CC5)C4)c4nccnc34)cc(F)c2n1` (stereo not drawn) [Compound 375], the IC50 in the series with SMN2 mRNA is less than 0.1 µM; in the series on HiBiT-tagged MYB protein it was 0.1 to 1 µM; in the series with HiBiT-tagged HTT protein, 1 to 10 µM; in the series on Target C it was 1 to 10 µM. For the same compound, in the series on K562 cells, the Viability entry was “B (B represents 100-1000 nM)”.

Turning to `Cc1cn2cc(NC(=O)c3ccc(N4C[C@@H](C)NC5(CC5)C4)c4nccnc34)cc(F)c2n1` [Compound 376], the IC50 in the series with SMN2 mRNA is less than 0.1 µM; with HiBiT-tagged MYB protein, 0.1 to 1 µM; in the series on HiBiT-tagged HTT protein it was 1 to 10 µM; in the series on Target C it was more than 10 µM. Further, the Viability result with K562 cells was “B (B represents 100-1000 nM)”.

In the case of `Cc1cn2cc(NC(=O)c3ccc(N4C[C@H](C)NC5(CC5)C4)c4nccnc34)cc(F)c2n1` [Compound 377], the IC50 is less than 0.1 µM in the series on SMN2 mRNA, 0.1 to 1 µM in the series with HiBiT-tagged MYB protein, 1 to 10 µM in the series with HiBiT-tagged HTT protein and 1 to 10 µM in the series on Target C. Besides, in the series with K562 cells, the Viability entry is reported as “B (B represents 100-1000 nM)”.

In the case of `COc1ncc2c(N3C[C@@H](C)N[C@@H](C)C3)ccc(C(=O)Nc3cn4cc(C)nc4c(OC)n3)c2n1` [Compound 378], the IC50 in the series with SMN2 mRNA was less than 0.1 µM; in the series on HiBiT-tagged MYB protein it was less than 0.1 µM; in the series with HiBiT-tagged HTT protein, 0.1 to 1 µM; with Target C, 0.1 to 1 µM. In addition, the Viability result with K562 cells is given as “A (A represents <100 nM)”.
